In ChEMBL document CHEMBL4145553, “Design, synthesis, and biological evaluation of novel amide and hydrazide based thioether analogs targeting Histone deacteylase (HDAC) enzymes” (Eur J Med Chem, 2018):

Tests used:
PC-3 = assay: Growth inhibition of human PC3 cells at 10 uM incubated for 48 hrs by sulforhodamine B assay relative to control; type: functional; details: PC-3, 48 h, values are per cent of control
EKVX = assay: Growth of human EKVX cells at 10 uM incubated for 48 hrs by sulforhodamine B assay relative to control
UACC-257 = assay: Growth of human UACC257 cells at 10 uM incubated for 48 hrs by sulforhodamine B assay relative to control; details: UACC-257, 48 h
UACC-62 = assay: Growth of human UACC62 cells at 10 uM incubated for 48 hrs by sulforhodamine B assay relative to control; details: UACC-62, 48 h
NCI-H522 = assay: Growth of human NCI-H522 cells at 10 uM incubated for 48 hrs by sulforhodamine B assay relative to control; details: NCI-H522, 48 h
DU-145 = assay: Growth inhibition of human DU145 cells at 10 uM incubated for 48 hrs by sulforhodamine B assay relative to control; type: functional; details: DU-145, 48 h, values are per cent of control
SR = assay: Growth of human SR cells at 10 uM incubated for 48 hrs by sulforhodamine B assay relative to control
OVCAR-3 = assay: Growth of human OVCAR3 cells at 10 uM incubated for 48 hrs by sulforhodamine B assay relative to control; details: OVCAR-3, 48 h
SNB-19 = assay: Growth of human SNB19 cells at 10 uM incubated for 48 hrs by sulforhodamine B assay relative to control; details: SNB-19, 48 h
OVCAR-8 = assay: Growth of human OVCAR8 cells at 10 uM incubated for 48 hrs by sulforhodamine B assay relative to control; details: OVCAR-8, 48 h
K562 = assay: Growth of human K562 cells at 10 uM incubated for 48 hrs by sulforhodamine B assay relative to control; details: K562, 48 h
MCF7 = assay: Growth inhibition of human MCF7 cells at 10 uM incubated for 48 hrs by sulforhodamine B assay relative to control; type: functional; details: MCF7, 48 h, values are per cent of control
Hs-578T = assay: Growth inhibition of human Hs 578T cells at 10 uM incubated for 48 hrs by sulforhodamine B assay relative to control; type: functional; details: values are per cent of control
HOP-62 = assay: Growth of human HOP62 cells at 10 uM incubated for 48 hrs by sulforhodamine B assay relative to control; details: HOP-62, 48 h
OVCAR-5 = assay: Growth of human OVCAR5 cells at 10 uM incubated for 48 hrs by sulforhodamine B assay relative to control; details: OVCAR-5, 48 h
SF-268 = assay: Growth of human SF268 cells at 10 uM incubated for 48 hrs by sulforhodamine B assay relative to control; details: SF-268, 48 h
TK-10 = assay: Growth inhibition of human TK10 cells at 10 uM incubated for 48 hrs by sulforhodamine B assay relative to control; type: functional; details: TK-10, 48 h, values are per cent of control
SK-MEL-28 = assay: Growth of human SK-MEL-28 cells at 10 uM incubated for 48 hrs by sulforhodamine B assay relative to control; details: SK-MEL-28, 48 h
SK-MEL-5 = assay: Growth of human SK-MEL-5 cells at 10 uM incubated for 48 hrs by sulforhodamine B assay relative to control; details: SK-MEL-5, 48 h
786-0 = assay: Growth inhibition of human 786-0 cells at 10 uM incubated for 48 hrs by sulforhodamine B assay relative to control; type: functional; details: 786-0, 48 h, values are per cent of control
CAKI-1 = assay: Growth inhibition of human Caki1 cells at 10 uM incubated for 48 hrs by sulforhodamine B assay relative to control; type: functional; details: CAKI-1, 48 h, values are per cent of control
RPMI-8226 = assay: Growth of human RPMI8226 cells at 10 uM incubated for 48 hrs by sulforhodamine B assay relative to control; details: RPMI-8226, 48 h
A498 = assay: Growth inhibition of human A498 cells at 10 uM incubated for 48 hrs by sulforhodamine B assay relative to control; type: functional; details: A498, 48 h, values are per cent of control
NCI-H226 = assay: Growth inhibition of human NCI-H226 cells at 10 uM incubated for 48 hrs by sulforhodamine B assay relative to control; type: functional; details: NCI-H226, 48 h, values are per cent of control
T47D = assay: Growth inhibition of human T47D cells at 10 uM incubated for 48 hrs by sulforhodamine B assay relative to control; type: functional; details: values are per cent of control
SW-620 = assay: Growth of human SW620 cells at 10 uM incubated for 48 hrs by sulforhodamine B assay relative to control; details: SW-620, 48 h
MDA-MB-468 = assay: Growth inhibition of human MDA-MB-468 cells at 10 uM incubated for 48 hrs by sulforhodamine B assay relative to control; type: functional; details: MDA-MB-468, 48 h, values are per cent of control
MDA-MB-435 = assay: Growth of human MDA-MB-435 cells at 10 uM incubated for 48 hrs by sulforhodamine B assay relative to control; details: MDA-MB-435, 48 h
SN12C = assay: Growth inhibition of human SN12C cells at 10 uM incubated for 48 hrs by sulforhodamine B assay relative to control; type: functional; details: values are per cent of control
HCC 2998 = assay: Growth of human HCC2998 cells at 10 uM incubated for 48 hrs by sulforhodamine B assay relative to control; details: HCC 2998, 48 h
IGROV-1 = assay: Growth of human IGROV1 cells at 10 uM incubated for 48 hrs by sulforhodamine B assay relative to control; details: IGROV-1, 48 h
NCI-H23 = assay: Growth inhibition of human NCI-H23 cells at 10 uM incubated for 48 hrs by sulforhodamine B assay relative to control; type: functional; details: NCI-H23, 48 h, values are per cent of control
SNB-75 = assay: Growth of human SNB75 cells at 10 uM incubated for 48 hrs by sulforhodamine B assay relative to control; details: SNB-75, 48 h

| SMILES | growth, % of control at 10 µM (PC-3) | growth, % of control at 10 µM (EKVX) | growth, % of control at 10 µM (UACC-257) | growth, % of control at 10 µM (UACC-62) | growth, % of control at 10 µM (NCI-H522) | growth, % of control at 10 µM (DU-145) | growth, % of control at 10 µM (SR) | growth, % of control at 10 µM (OVCAR-3) | growth, % of control at 10 µM (SNB-19) | growth, % of control at 10 µM (OVCAR-8) | growth, % of control at 10 µM (K562) | growth, % of control at 10 µM (MCF7) | growth, % of control at 10 µM (Hs-578T) | growth, % of control at 10 µM (HOP-62) | growth, % of control at 10 µM (OVCAR-5) | growth, % of control at 10 µM (SF-268) | growth, % of control at 10 µM (TK-10) | growth, % of control at 10 µM (SK-MEL-28) | growth, % of control at 10 µM (SK-MEL-5) | growth, % of control at 10 µM (786-0) | further results |
| --- | --- | --- | --- | --- | --- | --- | --- | --- | --- | --- | --- | --- | --- | --- | --- | --- | --- | --- | --- | --- | --- |
| CCS/C(Nc1ccccc1)=C(\C#N)C(=O)Nc1ccc(OC)cc1 | 47.9% | 52.4% | 58.4% | 27.2% | 0.63% | 33.8% | 6.62% | -12.1% | 23.1% | 31.2% | 7.34% | 19% | 27.4% | 34.2% | 63.1% | 39.1% | 47.6% | 58.9% | 17.8% | 39.5% | growth, % of control at 10 µM (CAKI-1): 40.4%; growth, % of control at 10 µM (RPMI-8226): 25.2%; growth, % of control at 10 µM (A498): 22.7%; growth, % of control at 10 µM (NCI-H226): 57.9%; growth, % of control at 10 µM (T47D): 25.4%; growth, % of control at 10 µM (SW-620): 17.9%; growth, % of control at 10 µM (MDA-MB-468): -2.63%; growth, % of control at 10 µM (MDA-MB-435): -47.9%; growth, % of control at 10 µM (SN12C): 37.8%; growth, % of control at 10 µM (HCC 2998): 55.2%; growth, % of control at 10 µM (IGROV-1): 55.7%; growth, % of control at 10 µM (NCI-H23): 48.3%; growth, % of control at 10 µM (SNB-75): 18.2% |
| CCS/C(Nc1ccccc1)=C(\C#N)C(=O)Nc1ccc(C)cc1 | 97% | 97.4% | 99.3% | 80.3% | 71.2% | 95.2% | 64.2% | 97.9% | 93.3% | 96% | 80.1% | 92.3% | 98.9% | 103% | 101% | 86.8% | 81.7% | 109% | 93.6% | 87.1% | growth, % of control at 10 µM (CAKI-1): 86.8%; growth, % of control at 10 µM (RPMI-8226): 86%; growth, % of control at 10 µM (A498): 79.4%; growth, % of control at 10 µM (NCI-H226): 95%; growth, % of control at 10 µM (T47D): 72.1%; growth, % of control at 10 µM (SW-620): 101%; growth, % of control at 10 µM (MDA-MB-468): 103%; growth, % of control at 10 µM (MDA-MB-435): 102%; growth, % of control at 10 µM (SN12C): 94.3%; growth, % of control at 10 µM (HCC 2998): 94.8%; growth, % of control at 10 µM (IGROV-1): 99%; growth, % of control at 10 µM (NCI-H23): 94%; growth, % of control at 10 µM (SNB-75): 109% |
| CCS/C(Nc1ccccc1)=C(\C#N)C(=O)Nc1ccccc1 | 92.4% | 100% | 103% | 79.8% | 65.7% | 102% | 70.3% | 88.9% | 91.2% | 94.2% | 89.9% | 98.6% | 96.9% | 93.1% | 96.5% | 91.2% | 76.7% | 112% | 93.5% | 88.5% | growth, % of control at 10 µM (CAKI-1): 87.5%; growth, % of control at 10 µM (RPMI-8226): 79.2%; growth, % of control at 10 µM (A498): 76.2%; growth, % of control at 10 µM (NCI-H226): 92.9%; growth, % of control at 10 µM (T47D): 70.1%; growth, % of control at 10 µM (SW-620): 103%; growth, % of control at 10 µM (MDA-MB-468): 90.7%; growth, % of control at 10 µM (MDA-MB-435): 110%; growth, % of control at 10 µM (SN12C): 94%; growth, % of control at 10 µM (HCC 2998): 96.1%; growth, % of control at 10 µM (IGROV-1): 105%; growth, % of control at 10 µM (NCI-H23): 94.3%; growth, % of control at 10 µM (SNB-75): 102% |
| CCS/C(Nc1ccccc1)=C(\C#N)C(=O)N/N=C\c1ccco1 | 99.4% | 101% | 84.4% | 97.7% | 75.7% | 106% | 85.1% | 104% | 101% | 92.1% | 97.8% | 66.8% | 101% | 97.4% | 106% | 98% | 103% | 109% | 101% | 100% | growth, % of control at 10 µM (CAKI-1): 95.9%; growth, % of control at 10 µM (RPMI-8226): 103%; growth, % of control at 10 µM (A498): 77.3%; growth, % of control at 10 µM (NCI-H226): 95.2%; growth, % of control at 10 µM (T47D): 78%; growth, % of control at 10 µM (SW-620): 103%; growth, % of control at 10 µM (MDA-MB-468): 91.4%; growth, % of control at 10 µM (MDA-MB-435): 105%; growth, % of control at 10 µM (SN12C): 97.7%; growth, % of control at 10 µM (HCC 2998): 107%; growth, % of control at 10 µM (IGROV-1): 105%; growth, % of control at 10 µM (NCI-H23): 96.5%; growth, % of control at 10 µM (SNB-75): 89.1% |
| CC(C)(C)S/C(Nc1ccccc1)=C(\C#N)C(=O)Nc1ccccc1 | 95.2% | 101% | 92.9% | 94.9% | 80.3% | 107% | 82.3% | 108% | 92.5% | 99.8% | 95.9% | 100% | 99.6% | 90.6% | 100% | 86.3% | 90.9% | 105% | 102% | 94.3% | growth, % of control at 10 µM (CAKI-1): 95%; growth, % of control at 10 µM (RPMI-8226): 95.3%; growth, % of control at 10 µM (A498): 92.9%; growth, % of control at 10 µM (NCI-H226): 88.9%; growth, % of control at 10 µM (T47D): 85.2%; growth, % of control at 10 µM (SW-620): 103%; growth, % of control at 10 µM (MDA-MB-468): 92.8%; growth, % of control at 10 µM (MDA-MB-435): 104%; growth, % of control at 10 µM (SN12C): 98.4%; growth, % of control at 10 µM (HCC 2998): 106%; growth, % of control at 10 µM (IGROV-1): 108%; growth, % of control at 10 µM (NCI-H23): 99.8%; growth, % of control at 10 µM (SNB-75): 96.5% |
